# Tests used:
# [1] = biological target: T1, P-450TYR expressed in E. coli (Sorghum bicolor, UniProt Q43135); assay: Substrate binding spectra of P-450TYR expressed in E. coli
# T1 construct: in which the 35 N-terminal amino acids are replaced by the nine N-terminal amino acids from bovine 17α hydroxylase; nine N-terminal amino acids from bovine 17alpha-hydroxylase (replace the 35 N-terminal residues) (N); made in house; host or cells: E. coli JM109, vector pSP19g10L
# Description: Cytochrome P-450TYR in the oxidized state has a strong absorption peak at 420 nm, representing the low spin state of the iron of the heme group. The binding of a ligand to the heme group shifts the absorption maximum by changing the spin state of the iron. Binding of tyrosine at the catalytic site of cytochrome P-450TYR induces a change of the spin state of the oxidized iron from low to high spin, and thereby changes the absorption maximum from 420 nm to 390 nm producing a type I spectrum (Jefcoate, Methods in Enzymology 52:258-279, 1978). The following experimental procedure is used to obtain the substrate binding spectrum: two identical cuvettes containing a buffered solution of the isolated cytochrome P-450 are prepared. The substrate of the enzyme is added to the sample cuvette whereas the same volume of buffer is added to the other cuvette. The difference spectrum is then recorded in an SLM-Aminco DW2c spectrophotometer. The absorption difference, A390-420, is proportional to the concentration of cytochrome P-450TYR with a bound substrate at its active site. If a saturating concentration of substrate is added to the sample cuvette, the absorption difference is proportional to the concentration of the substrate specific cytochrome P-450 in the cuvettes. The saturating concentration of the substrate is determined by titrating the cytochrome P-450 sample with increasing amounts of substrate and monitoring A390-420.
# A modified cytocrome P-450TYR, in which the 35 N-terminal amino acids are replaced by the nine N-terminal amino acids from bovine 17α hydroxylase is introduced into the expression vector pSP19g10L which can be obtained from Dr. Henry Barnes (La Jolla, Calif.). This plasmid contains the lac Z promoter fused with the known short leader sequence (g10L) of gene 10 from bacteriophage T7 (Olin et al, 1988). A construct containing the N-terminal amino acids from bovine 17α hydroxylase and a truncated form of the P-450TYR gene is designed using PCR mutagenesis: Oligonucleotide TYROL 1d (5'-CGGGATCCATATGGCTCTGTTATTAGCAGTTTTTCTGTCGTACCTGGCCCG-3'; SEQ ID NO 23) containing a 5' mutant cDNA sequence as well as a BamHI and NdeI restriction site is used together with oligonucleotide TYROL 3 comprising the sequence surrounding the unique BamHI restriction site downstream of the ATG start codon of the cDNA coding for P-450TYR to amplify a modified N-terminal sequence of P-450TYR. The amplification product is cut with NdeI and BamHI restriction enzymes. To introduce a HindIII site immediately downstream of the stop codon of the P-450TYR gene, oligonucleotides TYROL 2 and TYROL 4 are used in a polymerase chain reaction to obtain a C-terminal fragment of the P-450TYR gene comprising a HindIII restriction site immediately downstream of the stop codon. The amplification product is cut with PstI and HindIII restriction enzymes. The complete expression plasmid is constructed by simultaneous ligation of the N-terminal NdeI/BamHI fragment, the BamHI/PstI fragment of the P-450TYR gene and the C-terminal PstI/HindIII fragment into NdeI/HindIII cleaved pSP19g10L vector DNA. The expression vector obtained is transformed into E. coli strain JM109. Transformed E. coli produce 300 nmol to 500 nmol cytochrome P-450TYR per liter cell culture upon growth at 28° C. in the presence of 1 mM isopropyl-β-D-thiogalactopyranoside and at 125 rpm. Expression levels as high as 900 nmol per liter, equivalent to 55 mg P-450TYR per liter, have been obtained. […]
# cytochrome P-450TYR = biological target: T2, cytochrome P-450TYR (Sorghum bicolor, UniProt Q43135); assay: Reconstitution of cytochrome P-450TYR activity in DLPC micelles; type: biochemical
# T2 construct: from tissue; host or cells: microsomes of etiolated Sorghum bicolor seedlings, solubilised and purified by dye columns
# Description: Reconstitution of the enzyme activity of a microsomal P-450 enzyme is accomplished by insertion of the cytochrome P-450 enzyme and the corresponding NADPH-cytochrome P-450 oxidoreductase into appropriate lipid micelles made from different commercially available lipids. Isolation of NADPH-cytochrome P-450 oxidoreductase is done according to Halkier and Moller, Plant Physiol. 96:10-17, 1990. A mixture of lipids can be used but with cytochrome P-450TYR di-lauroyl-phosphatidyl choline (DLPC) provides the best enzymatic activity. One rate limiting factor of this rate limiting reaction is the number of correctly formed complexes of cytochrome P-450TYR and NADPH-cytochrome P-450 oxidoreductase. Excess amounts of the oxidoreductase and concentrated enzyme solutions ensure a sufficient number of active complexes.
# A reconstituted enzyme is obtained using the following components:
# Cytochrome P-450TYR : 100 μg/ml in 50 mM potassium phosphate buffer pH 7,9
# Oxidoreductase, purified from Sorghum bicolor: 100 μg/ml in 50 mM potassium phosphate buffer pH 7,9
# Lipid: 10 mg/ml di-lauroyl-phosphatidyl choline, sonicated in 50 mM potassium phosphate buffer pH 7,9
# ^14 C-tyrosine: commercially available from Amersham; [U-^14 C]-L-tyrosine 0.5 μCi
# 10 μl of the lipid suspension is mixed in a glass vial with 50 μl of the cytochrome P-450TYR (0-1.5 pmol) solution. 50 μl of the oxidoreductase (0-0.15 U) solution is added and then 10 μl tyrosine solution and 10 μl NADPH solution are added and the mixture is sonicated in a Branson 5200 sonication bath for one minute. The reaction mixture is subsequently incubated for 1 hour at 30° C. At the end of the incubation period the reaction is stopped by transferring the glass vials onto ice. Radioactively labelled intermediates formed are extracted into 50 μl ehtyl acetate, applied to a silica coated TLC plate and developed using an ethyl acetate/toluene (1:5 v/v) mixture as mobile phase. The resultant product, p-hydroxyphenylacetaldehyde oxime is visualized by autoradiography of the TLC plate. Alternatively, the intermediates are analyzed by reverse-phase HPLC coupled to a Berthold radioactiviy monitor. The HPLC separation was carried out using a nucleosil 100-10C18 column isocratically eluted with 1,5% 2-propanol in 25 mM Hepes pH 7,9 (Halkier et al, J. Biol. Chem. 264:19487-19494, 1989). Control samples may be made by omitting either cytochrome P-450 oxidoreductase or NADPH.
# T2 sequence (Q43135 2-558): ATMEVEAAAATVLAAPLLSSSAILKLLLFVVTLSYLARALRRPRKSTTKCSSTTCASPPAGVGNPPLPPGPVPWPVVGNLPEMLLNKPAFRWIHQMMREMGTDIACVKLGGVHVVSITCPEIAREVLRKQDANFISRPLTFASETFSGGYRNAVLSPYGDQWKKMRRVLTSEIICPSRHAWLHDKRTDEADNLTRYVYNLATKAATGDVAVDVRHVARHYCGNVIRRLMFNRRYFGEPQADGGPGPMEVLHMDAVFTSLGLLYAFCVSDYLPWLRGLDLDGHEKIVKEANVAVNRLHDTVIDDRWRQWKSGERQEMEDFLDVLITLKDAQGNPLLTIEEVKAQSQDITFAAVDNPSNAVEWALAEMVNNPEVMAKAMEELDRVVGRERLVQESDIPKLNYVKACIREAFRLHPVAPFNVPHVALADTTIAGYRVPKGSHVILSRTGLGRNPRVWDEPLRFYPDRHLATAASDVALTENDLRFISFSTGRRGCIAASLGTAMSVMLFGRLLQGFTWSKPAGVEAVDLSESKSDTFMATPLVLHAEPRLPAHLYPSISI
# T1 sequence (Q43135 other isoform, or with tags, fused parts or gaps): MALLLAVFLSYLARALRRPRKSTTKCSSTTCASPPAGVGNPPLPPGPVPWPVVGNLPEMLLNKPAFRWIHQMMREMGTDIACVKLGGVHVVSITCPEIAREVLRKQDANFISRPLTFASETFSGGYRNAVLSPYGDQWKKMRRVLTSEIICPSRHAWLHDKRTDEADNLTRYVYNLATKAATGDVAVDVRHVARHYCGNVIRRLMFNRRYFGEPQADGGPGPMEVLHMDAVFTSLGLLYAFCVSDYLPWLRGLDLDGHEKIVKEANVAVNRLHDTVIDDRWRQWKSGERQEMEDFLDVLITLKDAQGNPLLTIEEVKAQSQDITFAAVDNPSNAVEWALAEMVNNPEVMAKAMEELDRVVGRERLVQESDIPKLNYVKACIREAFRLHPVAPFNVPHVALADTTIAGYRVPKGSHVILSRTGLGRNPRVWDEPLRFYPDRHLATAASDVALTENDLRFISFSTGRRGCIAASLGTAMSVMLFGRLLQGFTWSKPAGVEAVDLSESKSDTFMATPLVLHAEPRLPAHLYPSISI
structure (smiles),measurement,setting,value
"N[C@@H](Cc1ccc(O)cc1)C(=O)O [tyrosine, L-tyrosine]",molar extinction coefficient E420-390,[1],75.8 cm⁻¹ mM⁻¹
same,turn-over number,cytochrome P-450TYR; in the absence of added salt,228 min⁻¹
same,turn-over number,cytochrome P-450TYR; in the presence of 15 mM NaCl,198 min⁻¹

# From patent US5882851A, “Cytochrome P-450 monooxygenases” (Novartis Finance Corporation, priority 1993, dated 1999)
